Experiment: Solubility in solvents
Assay type: physicochemical
Details: for solubility in solvents: PGMEA (methoxypropyl acetate): solvent PGMEA; for solubility in solvents: chloroform: solvent chloroform; for solubility in solvents: cyclohexanone: solvent cyclohexanone; for solubility in solvents: ethyl acetate: solvent ethyl acetate; for solubility in solvents: THF: solvent THF; for solubility in solvents: methanol: solvent methanol

Row | SMILES | solubility in solvents: PGMEA (methoxypropyl acetate) | solubility in solvents: chloroform | solubility in solvents: cyclohexanone | solubility in solvents: ethyl acetate | solubility in solvents: THF | solubility in solvents: methanol
1 | CCC(C)(C)OC(=O)N1C(=O)C2=C(c3ccc(Cl)cc3)N(C(=O)OC(C)(C)CC)C(=O)C2=C1c1ccc(Cl)cc1 [DPP, N,N′-bis-tert-amyloxycarbonyl-1,4-diketo-3,6-di(4′-chlorophenyl)pyrrolo-[3,4-c]pyrrole, reference compound] | 5 % by weight | 10 % by weight | 10 % by weight | not more than 1 % by weight |  | 
2 | CCC(C)(C)OC(=O)N/C(=C1/C(=O)N(C(=O)OC(C)(C)CC)C(c2ccc(Cl)cc2)=C1C(=O)OC)c1ccc(Cl)cc1 [compound 1] | 2 % by weight | 50 % by weight | 10 % by weight | 4.55 % by weight | 28.57 % by weight | 0.2 % by weight
3 | CCC(C)(C)OC(=O)N/C(=C1/C(=O)NC(c2ccc(Cl)cc2)=C1C(=O)OC)c1ccc(Cl)cc1 [compound 2] | 0.67 % by weight | 2 % by weight | 5 % by weight | 1 % by weight | 12.5 % by weight | 0.1 % by weight

From US20040050294A1, “Coloring material and color filter” (Dai Nippon Printing Co., Ltd., priority 1999, published 2004)
